Laboratory results reported in ChEMBL document CHEMBL1201861, “Genomics of Drug Sensitity in Cancer screening data, Wellcome Trust Sanger Institute”.

Tests used:
Test in all cases: cells
Assay type in all cases: functional, cell-based, Homo sapiens
[1] = test system: SW1463; conditions: Homo sapiens, SW1463;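 also: growth inhibition of SW1463 cells, determined with a cell viability assay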
Description: SANGER: Inhibition of human SW1463 cell growth in a cell viability assay.

[2] = test system: JEG-3; conditions: Homo sapiens, JEG-3;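 also: growth inhibition of human JEG-3 cells, read out with a cell viability assay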
Description: SANGER: Inhibition of human JEG-3 cell growth in a cell viability assay.

[3] = test system: SK-MES-1; conditions: Homo sapiens, SK-MES-1;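 also: growth inhibition of human SK-MES-1 cells, read out with a cell viability assay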
Description: SANGER: Inhibition of human SK-MES-1 cell growth in a cell viability assay.

[4] = test system: UMC-11; conditions: Homo sapiens, UMC-11;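 also: growth inhibition of UMC-11 cells, read out with a cell viability assay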
Description: SANGER: Inhibition of human UMC-11 cell growth in a cell viability assay.

[5] = test system: PA-1; conditions: Homo sapiens, PA-1;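 also: IC50 for suppression of PA-1 cell proliferation, determined with a cell viability read-out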
Description: SANGER: Inhibition of human PA-1 cell growth in a cell viability assay.

[6] = test system: NCI-H1993; conditions: Homo sapiens, NCI-H1993;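 also: growth inhibition of the cancer cell line, assessed with a cell viability assay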
Description: SANGER: Inhibition of human NCI-H1993 cell growth in a cell viability assay.

[7] = test system: HCC1806; conditions: Homo sapiens, HCC1806;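 also: growth inhibition of the cancer cell line, determined with a cell viability assay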
Description: SANGER: Inhibition of human HCC1806 cell growth in a cell viability assay.

[8] = test system: BHT-101; conditions: Homo sapiens, BHT-101
Description: SANGER: Inhibition of human BHT-101 cell growth in a cell viability assay.

[9] = test system: HCT-116; conditions: Homo sapiens, HCT-116
Description: SANGER: Inhibition of human HCT-116 cell growth in a cell viability assay.

[10] = test system: MG-63; conditions: Homo sapiens, MG-63;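 also: growth inhibition of human MG-63 cells, read out with a cell viability assay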
Description: SANGER: Inhibition of human MG-63 cell growth in a cell viability assay.

[11] = test system: CP50-MEL-B; conditions: Homo sapiens, CP50-MEL-B;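 also: growth inhibition of the human cell line, measured with a cell viability read-out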
Description: SANGER: Inhibition of human CP50-MEL-B cell growth in a cell viability assay.

[12] = test system: SF-295; conditions: Homo sapiens, SF-295;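 also: growth inhibition of SF-295 cells, read out with a cell viability assay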
Description: SANGER: Inhibition of human SF295 cell growth in a cell viability assay.

[13] = test system: HCT-15; conditions: Homo sapiens, HCT-15;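 also: cell viability readout, IC50 reflecting suppression of HCT-15 cell growth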
Description: SANGER: Inhibition of human HCT-15 cell growth in a cell viability assay.

[14] = test system: HOP-92; conditions: Homo sapiens, HOP-92;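 also: cell viability readout, with IC50 reflecting inhibition of HOP-92 cell growth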
Description: SANGER: Inhibition of human HOP-92 cell growth in a cell viability assay.

[15] = test system: HuO9; conditions: Homo sapiens, HuO9;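 also: growth inhibition of HuO9 cells, read out with a cell viability assay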
Description: SANGER: Inhibition of human HuO9 cell growth in a cell viability assay.

[16] = test system: ESS-1; conditions: Homo sapiens, ESS-1;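 also: growth inhibition of human ESS-1 cells, read out by a cell viability assay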
Description: SANGER: Inhibition of human ESS-1 cell growth in a cell viability assay.

[17] = test system: BFTC-905; conditions: Homo sapiens, BFTC-905
Description: SANGER: Inhibition of human BFTC-905 cell growth in a cell viability assay.

[18] = test system: NB7; conditions: Homo sapiens, NB7;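 also: growth inhibition of NB7 cells, read out with a cell viability assay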
Description: SANGER: Inhibition of human NB7 cell growth in a cell viability assay.

[19] = test system: HT55; conditions: Homo sapiens, HT55;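 also: cell viability readout measuring growth inhibition of human HT55 cells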
Description: SANGER: Inhibition of human HT55 cell growth in a cell viability assay.

[20] = test system: D-423MG; conditions: Homo sapiens, D-423MG
Description: SANGER: Inhibition of human D-423MG cell growth in a cell viability assay.

[21] = test system: KYSE-150 cell line; conditions: Homo sapiens, KYSE-150;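 also: growth inhibition of human KYSE-150 cells, read out with a cell viability assay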
Description: SANGER: Inhibition of human KYSE-150 cell growth in a cell viability assay.

[22] = test system: CAL-51; conditions: Homo sapiens, CAL-51;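 also: human CAL-51 cell line, growth inhibition read out via a cell viability assay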
Description: SANGER: Inhibition of human CAL-51 cell growth in a cell viability assay.

[23] = test system: SNU-449; conditions: Homo sapiens, SNU-449
Description: SANGER: Inhibition of human SNU-449 cell growth in a cell viability assay.

[24] = test system: FTC-133; conditions: Homo sapiens, FTC-133
[25] = test system: HT-1376; conditions: Homo sapiens, HT-1376
Description: SANGER: Inhibition of human HT-1376 cell growth in a cell viability assay.

[26] = test system: AN3-CA; conditions: Homo sapiens, AN3-CA;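 also: growth inhibition of human AN3-CA cells measured by a cell viability assay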
Description: SANGER: Inhibition of human AN3-CA cell growth in a cell viability assay.

[27] = test system: H-EMC-SS; conditions: Homo sapiens, H-EMC-SS
Description: SANGER: Inhibition of human H-EMC-SS cell growth in a cell viability assay.

[28] = test system: RVH-421; conditions: Homo sapiens, RVH-421
Description: SANGER: Inhibition of human RVH-421 cell growth in a cell viability assay.

[29] = test system: SAOS-2; conditions: Homo sapiens, SAOS-2;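 also: growth inhibition of human Saos-2 cells determined by a cell viability assay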
Description: SANGER: Inhibition of human Saos-2 cell growth in a cell viability assay.

[30] = test system: PFSK-1; conditions: Homo sapiens, PFSK-1;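 also: cell viability assay measuring how strongly compounds suppress growth of human PFSK-1 cells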
Description: SANGER: Inhibition of human PFSK-1 cell growth in a cell viability assay.

[31] = test system: YKG-1; conditions: Homo sapiens, YKG-1;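 also: cell growth inhibition, read out with a viability assay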
Description: SANGER: Inhibition of human YKG-1 cell growth in a cell viability assay.

[32] = test system: KP-N-YN; conditions: Homo sapiens, KP-N-YN;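 also: growth inhibition of KP-N-YN cells, read out with a cell viability assay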
Description: SANGER: Inhibition of human KP-N-YN cell growth in a cell viability assay.

[33] = test system: SW1710; conditions: Homo sapiens, SW1710;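 also: growth inhibition of SW1710 cells, determined with a cell viability assay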
Description: SANGER: Inhibition of human SW1710 cell growth in a cell viability assay.

[34] = test system: CAL-54; conditions: Homo sapiens, CAL-54;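 also: growth inhibition of CAL-54 cells, read out by a viability measurement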
Description: SANGER: Inhibition of human CAL-54 cell growth in a cell viability assay.

[35] = test system: NCI-H2122; conditions: Homo sapiens, NCI-H2122;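 also: growth inhibition of the cells, read out with a cell viability assay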
Description: SANGER: Inhibition of human NCI-H2122 cell growth in a cell viability assay.

SMILES	IC50 [1]	IC50 [2]	IC50 [3]	IC50 [4]	IC50 [5]	IC50 [6]	IC50 [7]	IC50 [8]	IC50 [9]	IC50 [10]	IC50 [11]	IC50 [12]	IC50 [14]	IC50 [15]	IC50 [16]	IC50 [17]	IC50 [18]	IC50 [19]	IC50 [20]	IC50 [21]	also measured
Cc1cn(-c2cc(NC(=O)c3ccc(C)c(Nc4nccc(-c5cccnc5)n4)c3)cc(C(F)(F)F)c2)cn1 [NILOTINIB]	> 2000 nM	> 2000 nM	> 2000 nM	> 2000 nM	> 2000 nM	> 2000 nM	> 2000 nM	643 nM	> 2000 nM	> 2000 nM	> 2000 nM	> 2000 nM	> 2000 nM	> 2000 nM	> 2000 nM	> 2000 nM	134 nM	> 2000 nM	> 2000 nM	> 2000 nM	IC50 [13]: > 2000 nM; IC50 [22]: > 2000 nM; IC50 [23]: > 2000 nM; IC50 [24]: > 2000 nM; IC50 [25]: > 2000 nM; IC50 [26]: > 2000 nM; IC50 [27]: > 2000 nM; IC50 [28]: > 2000 nM; IC50 [29]: > 2000 nM; IC50 [30]: > 2000 nM; IC50 [31]: > 2000 nM; IC50 [32]: > 2000 nM; IC50 [33]: > 2000 nM; IC50 [34]: > 2000 nM; IC50 [35]: > 2000 nM
Nc1cccc2c1CN(C1CCC(=O)NC1=O)C2=O (stereo not drawn) [LENALIDOMIDE]	> 5000 nM	> 5000 nM	> 5000 nM	> 5000 nM	> 5000 nM	> 5000 nM	> 5000 nM	> 5000 nM	> 5000 nM	> 5000 nM	> 5000 nM	> 5000 nM	> 5000 nM	> 5000 nM	> 5000 nM	> 5000 nM	> 5000 nM	> 5000 nM	> 5000 nM	> 5000 nM	IC50 [13]: > 5000 nM; IC50 [22]: > 5000 nM; IC50 [23]: > 5000 nM; IC50 [24]: > 5000 nM; IC50 [25]: > 5000 nM; IC50 [26]: > 5000 nM; IC50 [27]: > 5000 nM; IC50 [28]: > 5000 nM; IC50 [29]: > 5000 nM; IC50 [30]: > 5000 nM; IC50 [31]: > 5000 nM; IC50 [32]: > 5000 nM; IC50 [33]: > 5000 nM; IC50 [34]: > 5000 nM; IC50 [35]: > 5000 nM
COc1cc2c(Nc3ccc(NC(=O)c4ccccc4)cc3)ncnc2cc1OCCCN1CCOCC1	> 4000 nM	> 4000 nM	> 4000 nM	2370 nM	2870 nM	> 4000 nM	> 4000 nM	> 4000 nM	1810 nM	> 4000 nM	> 4000 nM	> 4000 nM	> 4000 nM	> 4000 nM	> 4000 nM	2420 nM	1750 nM	> 4000 nM	> 4000 nM	> 4000 nM	IC50 [22]: 1840 nM; IC50 [23]: > 4000 nM; IC50 [24]: > 4000 nM; IC50 [25]: > 4000 nM; IC50 [26]: > 4000 nM; IC50 [27]: > 4000 nM; IC50 [28]: > 4000 nM; IC50 [29]: > 4000 nM; IC50 [30]: > 4000 nM; IC50 [31]: 3140 nM; IC50 [32]: > 4000 nM; IC50 [33]: > 4000 nM; IC50 [34]: > 4000 nM; IC50 [35]: > 4000 nM
CC1(C)CNc2cc(NC(=O)c3cccnc3NCc3ccncc3)ccc21 [MOTESANIB]	> 2000 nM	> 2000 nM	> 2000 nM	> 2000 nM	> 2000 nM	> 2000 nM	> 2000 nM	> 2000 nM	> 2000 nM	> 2000 nM	> 2000 nM	> 2000 nM	> 2000 nM	> 2000 nM	> 2000 nM	> 2000 nM	> 2000 nM	> 2000 nM	> 2000 nM	> 2000 nM	IC50 [22]: > 2000 nM; IC50 [23]: > 2000 nM; IC50 [24]: > 2000 nM; IC50 [25]: > 2000 nM; IC50 [26]: > 2000 nM; IC50 [27]: > 2000 nM; IC50 [28]: > 2000 nM; IC50 [29]: > 2000 nM; IC50 [30]: > 2000 nM; IC50 [31]: > 2000 nM; IC50 [32]: > 2000 nM; IC50 [33]: > 2000 nM; IC50 [34]: > 2000 nM; IC50 [35]: > 2000 nM
